This is an account of results in US10767186B2, “Organic compounds” (Novartis AG, priority 2007, dated 2020).

Structures are written as SMILES. Some results are limits rather than exact numbers.

Assay [1] deals with T1, reduced folate carrier (RFC) (Homo sapiens, UniProt P41440).
T1 sequence (P41440 1-591): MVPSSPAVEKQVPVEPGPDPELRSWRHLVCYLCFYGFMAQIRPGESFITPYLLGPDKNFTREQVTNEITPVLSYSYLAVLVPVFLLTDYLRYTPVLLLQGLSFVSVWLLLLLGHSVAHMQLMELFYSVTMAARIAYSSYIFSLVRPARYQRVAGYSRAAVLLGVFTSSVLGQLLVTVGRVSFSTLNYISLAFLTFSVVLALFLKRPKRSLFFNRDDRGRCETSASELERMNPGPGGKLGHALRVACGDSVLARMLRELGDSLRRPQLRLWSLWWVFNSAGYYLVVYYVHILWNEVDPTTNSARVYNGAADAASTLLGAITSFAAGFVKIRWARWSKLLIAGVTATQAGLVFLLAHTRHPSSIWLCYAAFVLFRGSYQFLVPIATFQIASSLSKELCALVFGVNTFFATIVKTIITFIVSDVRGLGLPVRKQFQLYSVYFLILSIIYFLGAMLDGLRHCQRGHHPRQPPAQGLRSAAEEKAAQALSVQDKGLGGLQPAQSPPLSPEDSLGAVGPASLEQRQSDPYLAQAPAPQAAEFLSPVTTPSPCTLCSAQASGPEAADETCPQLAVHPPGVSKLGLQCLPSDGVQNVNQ
The conditions noted are these: cited from earlier work.

Assay [2] has as its target FRα (FR alpha) and FRβ (FR beta). Conditions: cited from earlier work; for Kd: FRα and FRβ.
A further assay deals with CHO-K1 cell line. As to the kind of experiment: Folic acid starvation experiment, cell survival. Type of assay: cell-based, Chinese hamster. As for the experimental part:
Cells are cultivated in such medium and cell viability is analyzed to quantify the percentage of surviving cells.

The test system of the next assay is RFC-deficient C15 cells. Put plainly: Antibody production of test vector clones at low folic acid (ELISA). In kind it is cell-based, Chinese hamster. As for the experimental part: The cells are lacking RFC transporter activity, as disclosed elsewhere (Assaraf, Y. G. and Schimke, R. T. (1987) Proc. Natl. Acad. Sci. USA 84, 7154-7158; Rothem, L., et al., Mol. Pharmacol. 68: 616-624).
RFC-deficient C15 cells are transfected with the test vector by electroporation. […] Cells are diluted to a final density of 5 cells/ml and seeded at 100 μl/well in 96-well plates (i.e. 0.5 cells/well). […] The co-selection utilizing the folate system of the present invention together with an additional selection system (i.e. neo/G418) is applied to provide optimal performance of the selection process. […] This is corroborated by further analysis of antibody expression in the various clones.
The analysis of antibody production is performed in principle as outlined in Example 1.4 above. The concentration of the secreted antibody is monitored using an ELISA assay as follows: Maxisorp microplates are coated with an anti-human IgG. Following blocking with a buffer containing bovine serum albumin (BSA) and several washes, multiple dilutions of the secreted antibody samples are added. Then, a peroxidase-conjugated second antibody consisting of goat anti-human IgG-peroxidase is added. Finally, a colorimetric peroxidase substrate is added following which the resultant dye concentration is determined in each well spectrophotometrically and then compared to standard concentrations of known IgG concentrations.
Background: ELISA stands for enzyme-linked immunosorbent assay.

For `Nc1nc2c(c(=O)[nH]1)N(C=O)C(CNc1ccc(C(=O)N[C@@H](CCC(=O)O)C(=O)O)cc1)CN2` (some centres unmarked) [leucovorin, 5-formyl-THF], in assay [1], the “Kt (transport affinity)” value was 1 µM.
As to `C#CCN(c1ccc(C(=O)N[C@@H](CCC(=O)N[C@H](CCC(=O)O)C(=O)O)C(=O)O)cc1)[C@H]1CCc2cc3nc(CO)[nH]c(=O)c3cc21` [BGC945], the Kd (as a rule, the concentration at which binding is half-saturated) in assay [2] was 1 nM.
`Nc1nc2ncc(CNc3ccc(C(=O)N[C@@H](CCC(=O)O)C(=O)O)cc3)nc2c(=O)[nH]1` [folic acid]: the “Precentage of Survival” value came to 2.08 with CHO-K1 cell line (FA concentration 0.1 nM); 2.45 in the assay on CHO-K1 cell line (FA concentration 1 nM); 2 in the assay on CHO-K1 cell line (FA concentration 3 nM); 2.7 in the assay on CHO-K1 cell line (FA concentration 10 nM); 6.8 in the assay on CHO-K1 cell line (FA concentration 30 nM); 55.5 in the assay on CHO-K1 cell line (FA concentration 100 nM). The “Precentage of Survival” value in the assay with CHO-K1 cell line (FA concentration 300 nM) stood at 88.6; in the assay on CHO-K1 cell line (FA concentration 1000 nM) it was 100.8; with CHO-K1 cell line (FA concentration 2300 nM) it was 100. Moreover, the “CmAb: concentration of the secreted antibody in the medium” value in the assay on RFC-deficient C15 cells (folic acid 60 pM in the medium) worked out at 216 ± 30 µg/L; in the assay with RFC-deficient C15 cells (folic acid 600 pM in the medium), 138 ± 15 µg/L; with RFC-deficient C15 cells (folic acid 1200 pM in the medium), 19 ± 8 µg/L. In assay [1], the “Kt (transport affinity)” value is 200 to 400 µM.
Consider `Nc1nc2c(c(=O)[nH]1)CC(CCc1ccc(C(=O)N[C@@H](CCC(=O)O)C(=O)O)cc1)CN2` (some centres unmarked) [DDATHF, 5,10-dideazatetrahydrofolic acid], for which the Ki – broadly, the dissociation constant of the complex between target and ligand, obtained from inhibition or displacement – in assay [2] (using [3H]folic acid as a substrate) was 0.4 to 1.3 nM.
As for `CN(Cc1cnc2nc(N)nc(N)c2n1)c1ccc(C(=O)N[C@@H](CCC(=O)O)C(=O)O)cc1` [MTX, 4-amino-10-methylfolic acid], the Kd in assay [2] was more than 100 nM.
